# From US4659859A, “2-alkoxy-1-alkoxy phosphoryl dichlorides” (priority 1986, dated 1987)
# Several values for one entry are separate records, joined by “and”; a condition that tells them apart may be missing. Equal entries are not always repeated. Structures can show the parent of a compound that is named as a salt.
# Tests used:
# C-6 colon carcinoma = assay: Antitumor activity vs C-6 colon carcinoma in mice; assay type: in vivo; details: daily for 10 days, 5 day delay
# From the text: (§1) Compounds according to formula II above are also active against transplanted tumors in mice. Table II which follows gives the results of testing (d,1)-2-ethoxy-1-[(2-trimethylaminoethoxy)phosphinyloxy]-eicosane,hydroxy inner salt, (A), against several such tumors. In the table, column 1 gives the name of the tumor, column 2 the dosage levels, column 3 toxic deaths, column 4, the percent tumor growth inhibition and column 5, the dosage schedule or regimen. Ten mice were given each dosage I.P. and a group of 20 mice used as controls.
# 6C3 HED lymphosarcoma = assay: Antitumor activity vs 6C3 HED lymphosarcoma in mice; assay type: in vivo; details: daily for 8 days after inoculation
# From the text: as §1
# [1] = system: X-5563 plasma cell myeloma; assay: Antitumor activity vs X-5563 plasma cell myeloma in mice; assay type: in vivo; details: daily for 10 days with 3 day delay
# From the text: as §1
# Table III gives the results obtained by comparing the activity of the racemate (d,1)-2-ethoxy-1-[(2-trimethylaminoethoxy)phosphinyloxy]eicosane,hydroxy inner salt (A), the L-(-)enantiomer (B) and the D-(+)enantiomer (C) versus X-5563, a plasma cell myeloma.
# [2] = system: X-5563 plasma cell myeloma; assay: Oral dosing vs X-5563 plasma cell myeloma; assay type: in vivo, mice
# P388 leukemia = assay: Antitumor activity vs P388 leukemia; parameters: species or system mice; details: mouse, in vivo
# From the text: as §1
# M-5 ovarian carcinoma = assay: Antitumor activity vs M-5 ovarian carcinoma; parameters: species or system mice; details: mouse, in vivo
# From the text: as §1
# C3 H mammary carcinoma = assay: Antitumor activity vs C3 H mammary carcinoma; parameters: species or system mice; details: mouse, in vivo
# From the text: as §1
# CA755 mammary carcinoma = assay: Antitumor activity vs CA755 mammary carcinoma; parameters: species or system mice; details: mouse, in vivo
# From the text: as §1
# [3] = system: release of arachidonic acid from membrane phospholipids (rabbit neutrophils); assay: Inhibition of release of arachidonic acid from membrane phospholipids in glycogen-elicited rabbit neutrophils; assay type: cell-based; details: A-23187 0.5 mcg/ml activation, 5 minutes pretreatment at 37° C.
# Experimental: In this procedure, glycogen-elicited rabbit neutrophils are labelled with ^14 C-arachidonic acid by incubation for one hour at 37° C. and followed by treatment with the compound under test at 37° C. for 5 minutes. The cells were then activated by addition of 0.5 mcg/ml of A-23187 (an ionophore) for 5 minutes. Cellular metabolism was stopped; the membrane lipids extracted; and the extracted lipids chromatographed on TLC plates. Assays were conducted for free ^14 C-arachidonic acid and hydroxy^14 C-eicosatetraenoic acid (HETES) using a radiochromatogram scanner.
# [4] = system: spontaneously hypertensive rats (SHR); assay: Blood pressure and heart rate in spontaneously hypertensive rats, tail cuff method; assay type: in vivo, rat; details: 5 mg/kg S.C., 5 rats, tail cuff
# From the text: The above compounds are also active in lowering the blood pressure of spontaneously hypertensive rats (SHR). […] In the table, column 1 gives the compound used, column 2 the dose level, column 3, the route of administration, column 4, number of rats, column 5, the time of blood pressure measurement, column 6, blood pressure in mm (Hg), and column 7, heart rate.
# *B.P. measured by tail cuff method.
structure (smiles),measurement,setting,value
"CCCCCCCCCCCCCCCCCCC(COP(=O)([O-])OCC[N+](C)(C)C)OCC (racemic) [Compound 3, (d,l)-2-Ethoxy-1-[(2-trimethylaminoethoxy)phosphinyloxy]eicosane, hydroxy inner salt]",Percent inhibition of Tumor growth,C-6 colon carcinoma; 12 mg/kg I.P.,23%
same,Toxic deaths,C-6 colon carcinoma; 12 mg/kg I.P.,0/10
same,Percent inhibition of Tumor growth,C-6 colon carcinoma; 17 mg/kg I.P.,56%
same,Toxic deaths,C-6 colon carcinoma; 17 mg/kg I.P.,1/10
same,Percent inhibition of Tumor growth,C-6 colon carcinoma; 25 mg/kg I.P.,24%
same,Toxic deaths,C-6 colon carcinoma; 25 mg/kg I.P.,0/10
same,Percent inhibition of Tumor growth,C-6 colon carcinoma; 35 mg/kg I.P.,Toxic
same,Toxic deaths,C-6 colon carcinoma; 35 mg/kg I.P.,5/10
same,Percent inhibition of Tumor growth,6C3 HED lymphosarcoma; 12 mg/kg I.P.,10%
same,Toxic deaths,6C3 HED lymphosarcoma; 12 mg/kg I.P.,0/10
same,Percent inhibition of Tumor growth,6C3 HED lymphosarcoma; 17 mg/kg I.P.,15%
same,Toxic deaths,6C3 HED lymphosarcoma; 17 mg/kg I.P.,0/10
same,Percent inhibition of Tumor growth,6C3 HED lymphosarcoma; 25 mg/kg I.P.,48%
same,Toxic deaths,6C3 HED lymphosarcoma; 25 mg/kg I.P.,0/10
same,Percent inhibition of Tumor growth,6C3 HED lymphosarcoma; 35 mg/kg I.P.,85%
same,Toxic deaths,6C3 HED lymphosarcoma; 35 mg/kg I.P.,0/10
same,Percent inhibition of Tumor growth,[1]; 12 mg/kg,37%
same,Toxic deaths,[1]; 12 mg/kg,0/10
same,Toxic deaths,[1]; 17 mg/kg,0/10
same,Percent inhibition of Tumor growth,"[1]; 17 mg/kg, listed as (d,1)-A",65%
same,Percent inhibition of Tumor growth,"[1]; 17 mg/kg, listed as A",65% and 70%
same,Percent inhibition of Tumor growth,"[1]; 25 mg/kg, listed as (d,1)-A",77%
same,Toxic deaths,"[1]; 25 mg/kg, listed as (d,1)-A",0/10
same,Percent inhibition of Tumor growth,"[1]; 25 mg/kg, listed as A",77% and 86%
same,Toxic deaths,"[1]; 25 mg/kg, listed as A",0/10 and 2/10
same,Percent inhibition of Tumor growth,"[1]; 35 mg/kg, listed as (d,1)-A",Toxic
same,Toxic deaths,"[1]; 35 mg/kg, listed as (d,1)-A",4/10
same,Percent inhibition of Tumor growth,"[1]; 35 mg/kg, listed as A",toxic
same,Toxic deaths,"[1]; 35 mg/kg, listed as A",4/10 and 5/10
same,Toxic deaths,[1]; 50 mg/kg,10/10
same,Percent inhibition of Tumor growth,"[1]; 50 mg/kg, listed as (d,1)-A",Toxic
same,Percent inhibition of Tumor growth,"[1]; 50 mg/kg, listed as A",toxic
same,Percent inhibition of Tumor growth,[1]; 70 mg/kg,toxic
same,Toxic deaths,[1]; 70 mg/kg,10/10
same,inhibition of tumor growth,[2]; 25 mg/kg orally daily for 10 days after inoculation,10%
same,inhibition of tumor growth,[2]; 35 mg/kg orally daily for 10 days after inoculation,47%
same,inhibition of tumor growth,[2]; 50 mg/kg orally daily for 10 days after inoculation,56%
same,toxicity,"[2]; 50, 35 and 25 mg/kg orally daily for 10 days",minimal toxicity
same,toxicity,[2]; 50 and 70 mg/kg dose levels orally,toxic
same,activity against P388 leukemia,P388 leukemia,no activity
same,activity against M-5 ovarian carcinoma,M-5 ovarian carcinoma,no activity
same,activity against C3 H mammary carcinoma,C3 H mammary carcinoma,no activity
same,activity against CA755 mammary carcinoma,CA755 mammary carcinoma,no activity
same,inhibition of the release of arachidonic acid (AA) from phospholipids,[3],69%
same,inhibition of the total production of free AA and HETES,[3],97%
same,Blood pressure,[4]; 0 hours (baseline),188 mm Hg
same,Blood pressure,[4]; 1 hour,177 mm Hg
same,Blood pressure,[4]; 2 hours,159 mm Hg
